Source: patent US20250308625A1, “METHOD FOR ESTIMATING A DYNAMIC MOLECULAR PROGRAM OF A CELL” (Yale University, priority 2022, published 2025)

Target: T1, ESRRA (Homo sapiens, UniProt P11474)
T1 construct: endogenous in cells; host or cells: HCC38 CD44hi cells (2D culture)
T1 sequence (P11474 1-423): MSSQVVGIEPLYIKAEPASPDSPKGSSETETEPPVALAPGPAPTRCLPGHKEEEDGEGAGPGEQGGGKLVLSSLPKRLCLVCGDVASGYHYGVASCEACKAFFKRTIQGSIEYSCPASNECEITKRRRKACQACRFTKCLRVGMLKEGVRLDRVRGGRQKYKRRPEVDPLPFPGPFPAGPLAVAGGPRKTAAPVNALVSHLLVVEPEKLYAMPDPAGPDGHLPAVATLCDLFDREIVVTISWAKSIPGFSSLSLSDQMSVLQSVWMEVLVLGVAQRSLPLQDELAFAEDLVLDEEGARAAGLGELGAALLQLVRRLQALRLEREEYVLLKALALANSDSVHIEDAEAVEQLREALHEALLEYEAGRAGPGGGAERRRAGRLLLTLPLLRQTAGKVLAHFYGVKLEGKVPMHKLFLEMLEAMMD
Experiment: Western blot of CDH1 expression after ESRRA knockdown (siRNA) or ESRRA inhibition (C14) in 2D cultured HCC38 CD44hi cells
Type: cell-based
Conditions: 2D culture, C14 at 5 and 10 μM vs DMSO, 48 hours post-treatment, normalized to β-Actin, n=3, p≤0.05
Procedure: Preliminary validation of the MET network included an in-vitro knockdown of ESRRA in HCC38 CD44^hi cells (n=3 biological replicates). Predesigned siRNA specific to ESRRA and scrambled siRNA were purchased from Integrated DNA Technologies, USA (TriFECTa® RNAi Kit, Design ID hs.Ri.ESRRA.13). HCC38 CD44^hi cells were seeded in 24 well plates at a density of 9000 cells/well and ESRRA knockdown was performed using 10 nM of pooled siRNA (hs.Ri.ESRRA.13.1, hs.Ri.ESRRA.13.2 and hs.Ri.ESRRA.13.3) using Lipofectamine RNAiMax (ThermoFisher Scientific, USA) as per the manufacturer's protocol. Cells were harvested for protein extraction 48 hrs post siRNA transfection to study the downstream effect on CDH1 expression upon ESRRA knockdown using western blot. […]
Proteins were extracted from control and treated cells using ice cold modified RIPA buffer (50 mM Tris-HCl pH 7.5, 150 mM NaCl, 1 mM EDTA, 1 mM EGTA, 1% Triton X-100, 0.1% SDS with supplemented with 1× protease and phosphatase inhibitor cocktails). […] Proteins were quantified using the Pierce™ BCA Protein Assay Kit (Cat. 23227, Thermo Fisher Scientific, USA) as per the manufacturer's instructions. […] The signal intensity of the bands in western blots was quantified using Image Studio Lite version 5.2 (LI-COR Biotechnology, USA).

CDH1 expression (western blot, relative fold-change): significant increase
Structure (SMILES): CC(C)c1cccc(-n2cc(C(=O)c3ccccc3N)nn2)c1 [ESRRA antagonist, (2-Aminophenyl) (1-(3-isopropylphenyl)-1H-1,2,3-triazol-4-yl) methanone]
